Data as given in ChEMBL document CHEMBL1201862, “PubChem BioAssay data set” (2004).
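Where inhibition never reached the appropriate level, the endpoint shown equals the highest concentration tested. Otherwise, values were interpolated linearly from a five-concentration, 48-hour dose response in 96-well plates. GI50 marks 50% less growth.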 The source made the active and inactive calls. Cut-off read from the data, not from the text of the source: active = GI50 up to about 1.1 µM and inactive = higher.

Tests used:
Assay in all cases: growth of human tumour cells (NCI), 48 h
SK-MEL-5 = test system: SK-MEL-5
A498 = test system: A498
SN12C = test system: SN12C
DMS-114 = test system: DMS-114
XF498 = test system: XF498
M19-MEL = test system: M19-MEL
HCC 2998 = test system: HCC 2998
OVCAR-4 = test system: OVCAR-4
UACC-62 = test system: UACC-62
M14 = test system: M14
SF-295 = test system: SF-295
HOP-18 = test system: HOP-18
KM12 = test system: KM12
CAKI-1 = test system: CAKI-1
HT-29 = test system: HT-29
NCI-H522 = test system: NCI-H522
NCI-H23 = test system: NCI-H23
DU-145 = test system: DU-145
MDA-MB-231 = test system: MDA-MB-231
Hs-578T = test system: Hs-578T

`N#CC1C(C#N)C2(c3ccccc3)C(c3ccccc3)=NN(c3ccccc3)CC12` (centres undefined) was tested, and the GI50 (SK-MEL-5) was > 100 µM (inactive), the GI50 (A498) was > 100 µM (inactive) and the GI50 (SN12C) was > 100 µM (inactive). For the same compound, the GI50 (DMS-114) was 59.4 µM (inactive), the GI50 (XF498) was > 100 µM (inactive) and the GI50 (M19-MEL) was > 100 µM (inactive). For the same compound, the GI50 (HCC 2998) was > 100 µM (inactive), the GI50 (OVCAR-4) was 95.3 µM (inactive) and the GI50 (UACC-62) was 94.8 µM (inactive). For the same compound, the GI50 (M14) was > 100 µM (inactive), the GI50 (SF-295) was > 100 µM (inactive) and the GI50 (HOP-18) was > 100 µM (inactive). For the same compound, the GI50 (KM12) was > 100 µM (inactive) and the GI50 (CAKI-1) was > 100 µM (inactive).
For `Cn1c(O)c(C(=O)Nc2ccc([N+](=O)[O-])cc2)c(=O)n(C)c1=S`, the GI50 (SK-MEL-5) was 0.776 µM (active), the GI50 (HT-29) was 2.23 µM (inactive) and the GI50 (A498) was 0.499 µM (active). The GI50 (NCI-H522) was 2.32 µM (inactive), the GI50 (SN12C) was 3.13 µM (inactive) and the GI50 (DMS-114) was 2.27 µM (inactive). For the same compound, the GI50 (NCI-H23) was 1.42 µM (inactive), the GI50 (DU-145) was 2.02 µM (inactive) and the GI50 (M19-MEL) was 3.69 µM (inactive). For the same compound, the GI50 (HCC 2998) was 2.47 µM (inactive), the GI50 (OVCAR-4) was 2.71 µM (inactive) and the GI50 (MDA-MB-231) was 2.54 µM (inactive). For the same compound, the GI50 (UACC-62) was 1.23 µM (inactive), the GI50 (M14) was 3.37 µM (inactive) and the GI50 (SF-295) was 1.31 µM (inactive). For the same compound, the GI50 (HOP-18) was 2.84 µM (inactive), the GI50 (KM12) was 2.49 µM (inactive) and the GI50 (Hs-578T) was 0.617 µM (active). For the same compound, the GI50 (CAKI-1) was 2.81 µM (inactive).
With `CC(C)(C)c1cc(C(=O)O)c2c(c1)C(=O)OC2(c1ccccc1)c1ccccc1C(=O)O` (centres undefined) the GI50 (HT-29) was > 100 µM (inactive), the GI50 (NCI-H522) was 0.206 µM (active) and the GI50 (SN12C) was > 100 µM (inactive). The GI50 (DMS-114) was > 100 µM (inactive), the GI50 (NCI-H23) was > 100 µM (inactive) and the GI50 (XF498) was > 100 µM (inactive). The GI50 (M19-MEL) was > 100 µM (inactive), the GI50 (HCC 2998) was 0.467 µM (active) and the GI50 (OVCAR-4) was 78.3 µM (inactive). For the same compound, the GI50 (UACC-62) was > 100 µM (inactive), the GI50 (M14) was > 100 µM (inactive) and the GI50 (SF-295) was > 100 µM (inactive). The GI50 (HOP-18) was > 100 µM (inactive), the GI50 (KM12) was > 100 µM (inactive) and the GI50 (CAKI-1) was > 100 µM (inactive).
With `Cc1nc2ccccc2c(=O)n1/N=C(\N=N\c1ccccc1Cl)c1ccccc1` the GI50 (SK-MEL-5) was 19.4 µM (inactive), the GI50 (HT-29) was 25.6 µM (inactive) and the GI50 (A498) was 27.5 µM (inactive). For the same compound, the GI50 (NCI-H522) was 19.1 µM (inactive), the GI50 (DMS-114) was 15.5 µM (inactive) and the GI50 (NCI-H23) was 44.5 µM (inactive). The GI50 (XF498) was 21.1 µM (inactive), the GI50 (M19-MEL) was 25.8 µM (inactive) and the GI50 (UACC-62) was 17.5 µM (inactive). The GI50 (M14) was 18.1 µM (inactive), the GI50 (HOP-18) was 27.5 µM (inactive) and the GI50 (CAKI-1) was 23.4 µM (inactive).
For `O=C(OCC1CO1)c1cccs1` (centres undefined), the GI50 (SK-MEL-5) was > 100 µM (inactive), the GI50 (HT-29) was > 100 µM (inactive) and the GI50 (NCI-H522) was 17 µM (inactive). For the same compound, the GI50 (SN12C) was > 100 µM (inactive), the GI50 (DMS-114) was > 100 µM (inactive) and the GI50 (NCI-H23) was > 100 µM (inactive). For the same compound, the GI50 (XF498) was > 100 µM (inactive), the GI50 (M19-MEL) was > 100 µM (inactive) and the GI50 (HCC 2998) was > 100 µM (inactive). The GI50 (OVCAR-4) was > 100 µM (inactive), the GI50 (UACC-62) was > 100 µM (inactive) and the GI50 (M14) was > 100 µM (inactive). The GI50 (SF-295) was > 100 µM (inactive), the GI50 (KM12) was > 100 µM (inactive) and the GI50 (CAKI-1) was > 100 µM (inactive).
For `O=C1C2C=CC(C2)C(c2ccc(O)cc2)N1O` (centres undefined), the GI50 (SK-MEL-5) was > 100 µM (inactive), the GI50 (HT-29) was > 100 µM (inactive) and the GI50 (A498) was > 100 µM (inactive). The GI50 (NCI-H522) was > 100 µM (inactive), the GI50 (SN12C) was > 100 µM (inactive) and the GI50 (NCI-H23) was > 100 µM (inactive). For the same compound, the GI50 (XF498) was > 100 µM (inactive), the GI50 (M19-MEL) was > 100 µM (inactive) and the GI50 (HCC 2998) was > 100 µM (inactive). For the same compound, the GI50 (OVCAR-4) was > 100 µM (inactive), the GI50 (UACC-62) was > 100 µM (inactive) and the GI50 (M14) was > 100 µM (inactive). For the same compound, the GI50 (SF-295) was > 100 µM (inactive), the GI50 (KM12) was > 100 µM (inactive) and the GI50 (CAKI-1) was > 100 µM (inactive).
`CNC(=S)NNC(=O)c1c(C)nc2sccn12` was tested, and the GI50 (SK-MEL-5) was > 100 µM (inactive), the GI50 (HT-29) was > 100 µM (inactive) and the GI50 (NCI-H522) was > 100 µM (inactive). For the same compound, the GI50 (SN12C) was > 100 µM (inactive), the GI50 (NCI-H23) was > 100 µM (inactive) and the GI50 (XF498) was > 100 µM (inactive). For the same compound, the GI50 (M19-MEL) was > 100 µM (inactive), the GI50 (HCC 2998) was > 100 µM (inactive) and the GI50 (UACC-62) was > 100 µM (inactive). The GI50 (SF-295) was > 100 µM (inactive), the GI50 (HOP-18) was 0.414 µM (active) and the GI50 (KM12) was > 100 µM (inactive). For the same compound, the GI50 (CAKI-1) was > 100 µM (inactive).
`COC(C(=O)NCCCCNC(=O)C(OC)c1ccccc1)c1ccccc1` (centres undefined) was tested, and the GI50 (SK-MEL-5) was > 100 µM (inactive), the GI50 (HT-29) was > 100 µM (inactive) and the GI50 (A498) was > 100 µM (inactive). The GI50 (NCI-H522) was > 100 µM (inactive), the GI50 (SN12C) was > 100 µM (inactive) and the GI50 (DMS-114) was > 100 µM (inactive). For the same compound, the GI50 (NCI-H23) was > 100 µM (inactive), the GI50 (XF498) was > 100 µM (inactive) and the GI50 (M19-MEL) was > 100 µM (inactive). The GI50 (OVCAR-4) was > 100 µM (inactive), the GI50 (UACC-62) was > 100 µM (inactive) and the GI50 (M14) was > 100 µM (inactive). The GI50 (SF-295) was > 100 µM (inactive), the GI50 (HOP-18) was > 100 µM (inactive) and the GI50 (KM12) was > 100 µM (inactive). The GI50 (CAKI-1) was > 100 µM (inactive).
With `CC12CCC(CC1)C(C)(C)O2` [EUCALYPTOL] the GI50 (SK-MEL-5) was 5.5 µM (inactive), the GI50 (HT-29) was 59.4 µM (inactive) and the GI50 (A498) was 0.923 µM (active). The GI50 (NCI-H522) was 10.1 µM (inactive), the GI50 (SN12C) was 7.08 µM (inactive) and the GI50 (DMS-114) was 24.4 µM (inactive). The GI50 (NCI-H23) was 16.9 µM (inactive), the GI50 (XF498) was 2.16 µM (inactive) and the GI50 (M19-MEL) was 11.5 µM (inactive). For the same compound, the GI50 (HCC 2998) was 26.4 µM (inactive), the GI50 (OVCAR-4) was 61.1 µM (inactive) and the GI50 (UACC-62) was 10 µM (inactive). The GI50 (M14) was > 100 µM (inactive), the GI50 (SF-295) was 21.5 µM (inactive) and the GI50 (KM12) was 33.9 µM (inactive).
